These results are taken from article PMC10799085, “A miniaturized mode-of-action profiling platform enables high throughput characterization of the molecular and cellular dynamics of EZH2 inhibition” (Scientific Reports, 2024).

The test system of series [1] is EZH2. Further details: method as in Konze et al. [41]. The following applies: 40-fold higher enzyme concentration; ref Konze et al. [41]; cited from earlier work.
In series [2] the test system is H3K27me3 mark in MDA-MB-231 cells. Briefly: High content analysis (HCA) of cellular H3K27me3 mark, washout format. The following applies: for AUC (a.u.): HCA H3K27 methylation washout pIC50 AUC over all incubation/washout times; for IC50: Homo sapiens. The class given is cell-based. As for the experimental part:
In the low- and high-signal control wells, test compounds were replaced by 10 µM of EZH2 inhibitor (equal to unlabeled probe from ePCA and kPCA) or DMSO, respectively. […] After fixation, the cells were washed with PBS and incubated with 1% BSA blocking solution at RT for 1 h. Blocking solution was discarded, primary monoclonal antibody rabbit Tri-methyl-histone H3K27 (C36B11, Cell signaling) diluted 1:200 in blocking solution was added and incubated overnight at 4 °C. […] Afterwards, cells were washed three times with PBS and incubated at 4 °C until measuring. Fluorescence signals were captured by an Opera Phenix™ High Content Screening (HCA) system (Perkin Elmer) by 10× magnification. […] Microscopy images were initially visualized and preprocessed with MetaXpress High Content Image Acquisition & Analysis Software (Molecular Devices) as previously described. Raw data import, normalization, quality control and fitting curves for IC50 determination of tested compounds were done with Genedata Screener® for high-content screening. Wells with no recognizable signals were masked and the average intensity of the trimethylation signal was normalized to the DMSO control (0%).

A short description of series [3]: in vitro. The class given is in vitro ADME. The following applies: human, Caco-2, pH 7.2, 2 µM, 2 h, 37 °C; for Papp A→B at 2 h, 2 µM: apical to basolateral, read-out: PK Caco-2 Flux Papp A-B (mean); for Papp B→A at 2 h, 2 µM: basolateral to apical, read-out: PK Caco-2 Flux Papp B-A (mean). The procedure: Cells were kept at 37 °C in a humidified 5% CO2 atmosphere. Before the permeation assay was run, the culture medium was replaced by an FCS-free HEPES carbonate transport buffer (pH 7.2). For assessment of monolayer integrity, the transepithelial electrical resistance was measured. Test compounds were pre-dissolved in DMSO and added either to the apical or basolateral compartment at a final concentration of 2 µM. Before and after 2 h incubation at 37 °C, samples were taken from both compartments. Analysis of compound content was conducted after precipitation with methanol by LC/MS/MS analysis. Reference compounds were analyzed in parallel as assay control. Permeability (Papp) was calculated in the apical to basolateral (A → B) and basolateral to apical (B → A) directions. The efflux ratio basolateral (B) to apical (A) was calculated by dividing Papp B–A by Papp A–B.

In series [4] the target is T1, PRC2/EZH2Y641N (Homo sapiens, UniProt Q15910, Y641N).
T1 construct: Synthetic cDNA encoding N-terminal 6His-tagged full length EZH2^Y641N; 6His (N); made in house; host or cells: Sf9 insect cells (baculovirus co-infection)
Briefly: Equilibrium titration of the fluorescent probe, TR-FRET, -/+ H3K27me3 activator peptide. The settings on record: EZH2 Y641N, 25 °C. The series is classed as binding.

Series [5] concerns the target T2, PRC2/EZH2+/+ (Homo sapiens, UniProt Q15910).
T2 construct: purchased Active Motif
Kind of series: Kinetic titration (association then dissociation) of the fluorescent probe, TR-FRET. The series is classed as binding. The settings on record: for Kinetic koff / Kinetic kon: listed as fluorescent EZH2 probe.

Series [6] has as its target T2, PRC2/EZH2+/+. Kind of series: Equilibrium titration of the fluorescent probe, TR-FRET, -/+ H3K27me3 activator peptide. The series is classed as binding.
The target of series [7] is T1, PRC2/EZH2Y641N. Kind of series: Kinetic titration (association then dissociation) of the fluorescent probe, TR-FRET. The series is classed as binding. The following applies: EZH2 Y641N, 25 °C; for Kinetic koff / Kinetic kon: listed as fluorescent EZH2 probe.
The test system of series [8] is KARPAS-422 cells. Kind of series: Cellular proliferation assay (AlamarBlue, 144 h). The series is classed as cell-based. The settings on record: Homo sapiens; KARPAS-422 cells, 6-day (144 h), AlamarBlue; read-out: KARPAS (6-day) Anti-proliferation IC50. As for the experimental part: Cell viability was determined by means of the AlamarBlue® reagent (Thermo Fisher Scientific) following instructions from the manufacturer. […] Anti-proliferative IC50s were calculated by fitting the normalized AlamarBlue® fluorescence values to a 4-parameter logistic equation using the Electronic Notebook (ELN) software from IDBS.

Where “and” joins values, the source holds several entries; their conditions need not be identical. Equal values may be shown once. Read-outs that look alike come from different tables or passages of the source.

T2 sequence (Q15910 whole entry): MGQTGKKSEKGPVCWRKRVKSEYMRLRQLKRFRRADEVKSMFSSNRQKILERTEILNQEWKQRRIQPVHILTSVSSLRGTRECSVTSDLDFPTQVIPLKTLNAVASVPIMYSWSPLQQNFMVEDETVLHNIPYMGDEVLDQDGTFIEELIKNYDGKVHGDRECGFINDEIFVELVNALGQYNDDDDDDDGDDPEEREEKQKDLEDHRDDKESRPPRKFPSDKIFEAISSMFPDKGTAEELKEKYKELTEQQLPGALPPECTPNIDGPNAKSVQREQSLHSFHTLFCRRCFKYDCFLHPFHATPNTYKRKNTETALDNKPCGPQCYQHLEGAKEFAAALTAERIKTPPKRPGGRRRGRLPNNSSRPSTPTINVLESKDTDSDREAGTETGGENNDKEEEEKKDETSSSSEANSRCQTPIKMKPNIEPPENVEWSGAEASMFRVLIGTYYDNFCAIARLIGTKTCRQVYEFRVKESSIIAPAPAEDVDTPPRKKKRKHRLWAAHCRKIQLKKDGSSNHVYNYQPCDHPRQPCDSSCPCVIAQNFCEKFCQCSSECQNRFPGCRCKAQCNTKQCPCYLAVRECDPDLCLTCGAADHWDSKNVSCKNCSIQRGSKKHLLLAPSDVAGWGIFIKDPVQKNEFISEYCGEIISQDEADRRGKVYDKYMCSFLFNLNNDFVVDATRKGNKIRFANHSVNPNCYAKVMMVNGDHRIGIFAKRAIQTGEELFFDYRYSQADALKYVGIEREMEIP
T2 sequence (O75530 whole entry partner): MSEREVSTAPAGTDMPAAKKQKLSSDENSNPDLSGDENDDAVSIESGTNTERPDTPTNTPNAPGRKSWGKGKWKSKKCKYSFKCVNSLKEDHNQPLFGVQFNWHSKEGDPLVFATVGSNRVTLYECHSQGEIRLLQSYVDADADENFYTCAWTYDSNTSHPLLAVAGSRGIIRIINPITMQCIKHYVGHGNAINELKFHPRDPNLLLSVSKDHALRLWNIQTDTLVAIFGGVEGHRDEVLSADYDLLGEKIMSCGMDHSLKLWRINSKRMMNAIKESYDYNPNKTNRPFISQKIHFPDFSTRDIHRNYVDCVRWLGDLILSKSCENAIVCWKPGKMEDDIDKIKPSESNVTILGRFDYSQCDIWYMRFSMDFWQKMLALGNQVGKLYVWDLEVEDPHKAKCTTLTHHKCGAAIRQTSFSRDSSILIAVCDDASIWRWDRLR
T2 sequence (Q15022 whole entry partner): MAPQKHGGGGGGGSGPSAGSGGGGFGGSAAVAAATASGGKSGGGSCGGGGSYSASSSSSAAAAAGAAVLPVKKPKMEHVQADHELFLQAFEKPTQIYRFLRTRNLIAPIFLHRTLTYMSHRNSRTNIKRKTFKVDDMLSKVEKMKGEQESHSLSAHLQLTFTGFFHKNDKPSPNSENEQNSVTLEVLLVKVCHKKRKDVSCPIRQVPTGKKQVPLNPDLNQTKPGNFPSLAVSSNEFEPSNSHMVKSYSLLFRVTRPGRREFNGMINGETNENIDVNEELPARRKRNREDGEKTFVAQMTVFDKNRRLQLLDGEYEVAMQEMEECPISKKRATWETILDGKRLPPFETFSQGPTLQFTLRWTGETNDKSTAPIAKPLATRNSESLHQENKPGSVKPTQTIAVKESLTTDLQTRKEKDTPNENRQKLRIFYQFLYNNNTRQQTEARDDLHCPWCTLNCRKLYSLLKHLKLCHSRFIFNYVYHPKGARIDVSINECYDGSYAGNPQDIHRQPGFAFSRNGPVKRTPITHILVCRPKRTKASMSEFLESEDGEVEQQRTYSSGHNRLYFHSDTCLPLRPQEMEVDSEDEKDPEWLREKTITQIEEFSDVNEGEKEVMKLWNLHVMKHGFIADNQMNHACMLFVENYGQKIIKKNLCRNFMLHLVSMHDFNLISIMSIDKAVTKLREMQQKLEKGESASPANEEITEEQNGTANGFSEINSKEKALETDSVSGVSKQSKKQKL
T2 sequence (Q09028 whole entry partner): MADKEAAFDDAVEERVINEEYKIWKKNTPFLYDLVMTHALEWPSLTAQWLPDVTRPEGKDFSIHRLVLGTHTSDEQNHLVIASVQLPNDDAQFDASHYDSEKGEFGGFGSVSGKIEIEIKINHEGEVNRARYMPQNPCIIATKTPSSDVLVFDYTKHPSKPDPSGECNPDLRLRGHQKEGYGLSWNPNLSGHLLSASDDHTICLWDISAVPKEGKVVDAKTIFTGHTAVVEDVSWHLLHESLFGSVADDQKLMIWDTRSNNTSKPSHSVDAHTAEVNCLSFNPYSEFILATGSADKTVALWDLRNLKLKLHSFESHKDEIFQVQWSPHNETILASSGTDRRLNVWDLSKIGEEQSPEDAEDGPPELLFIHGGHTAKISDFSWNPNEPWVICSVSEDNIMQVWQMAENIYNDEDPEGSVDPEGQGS
T2 sequence (Q6ZN18 whole entry partner): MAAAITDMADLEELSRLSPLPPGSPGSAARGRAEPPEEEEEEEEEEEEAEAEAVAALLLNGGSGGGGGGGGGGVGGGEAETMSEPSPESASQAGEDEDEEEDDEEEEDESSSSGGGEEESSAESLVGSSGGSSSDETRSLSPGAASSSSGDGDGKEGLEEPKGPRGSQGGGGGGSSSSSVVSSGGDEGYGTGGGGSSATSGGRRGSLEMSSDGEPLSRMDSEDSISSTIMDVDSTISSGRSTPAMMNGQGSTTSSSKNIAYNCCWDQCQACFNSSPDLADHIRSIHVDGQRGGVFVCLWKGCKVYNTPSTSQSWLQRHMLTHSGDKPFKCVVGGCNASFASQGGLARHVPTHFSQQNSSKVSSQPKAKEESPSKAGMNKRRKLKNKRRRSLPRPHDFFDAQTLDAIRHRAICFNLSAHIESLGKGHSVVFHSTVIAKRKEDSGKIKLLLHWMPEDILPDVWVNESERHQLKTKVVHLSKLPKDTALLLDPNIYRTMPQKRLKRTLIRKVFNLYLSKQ
T1 sequence (Q15910 whole entry Y641N): as the sequence (Q15910 whole entry) above, with Y641N counted along it
T1 sequence (O75530 whole entry partner): as the sequence (O75530 whole entry partner) above
T1 sequence (Q15022 whole entry partner): as the sequence (Q15022 whole entry partner) above
T1 sequence (Q09028 whole entry partner): as the sequence (Q09028 whole entry partner) above
T1 sequence (Q6ZN18 whole entry partner): as the sequence (Q6ZN18 whole entry partner) above

As to UNC2239, the IC50 in series [1] is 20 nM.
On to `CCN(c1cc(-c2ccc(CN3CCOCC3)cc2)cc(C(=O)NCc2c(C)cc(C)[nH]c2=O)c1C)C1CCOCC1` [Compound 2, Tazemetostat], for which, in series [2], the “AUC (a.u.)” value is listed as 79.9 a.u. In addition, in series [3], the Papp A→B at 2 h, 2 µM was 1.18 ×10⁻⁶ cm/s and the Papp B→A at 2 h, 2 µM was found to be 28.1 ×10⁻⁶ cm/s.
Consider `CCCc1cc(C)[nH]c(=O)c1CNC(=O)c1cc(-c2ccc(N3CCN(CCCCCCNC(=O)CCCCCN4\C(=C/C=C/C=C/C5=[N+](CCOC)c6ccc(S(=O)(=O)O)cc6C5(C)C)C(C)(C)c5cc(S(=O)(=O)O)ccc54)CC3)nc2)cc2c1cnn2C(C)C.O=C(O)C(F)(F)F.O=C([O-])C(F)(F)F` [fluorescent probe, 2-[(1E,3E)-5-[(2Z)-3,3-dimethyl-1-{5-[(6-{4-[5-(4-{[(6-methyl-2-oxo-4-propyl-1,2-dihydropyridin-3-yl)methyl]carbamoyl}-1-(propan-2-yl)-1H-indazol-6-yl)pyridin-2-yl]piperazin-1-yl}hexyl)carbamoyl]pentyl}-5-sulfo-2,3-dihydro-1H-indol-2-ylidene]penta-1,3-dien-1-yl]-1-(2-methoxyethyl)-3,3-dimethyl-5-sulfo-3H-indol-1-ium trifluoroacetic acid trifluoroacetate], for which the Kd in series [4] (with H3K27me3 (AP)) was 2.7 nM and 2.72 nM; in series [4] (without H3K27me3 (AP)) it was 9.56 nM; in series [5] (with AP, 25 °C), 0.65 nM and 0.653 nM; in series [5] (without AP, 5 °C) it was 1.16 nM; in series [5] (without AP, 15 °C), 0.53 nM; in series [5] (without AP, 25 °C), 1.4 nM and 1.43 nM. Besides, the Kd in series [5] (without AP, 30 °C) is 5.98 nM; in series [5] (without AP, 37 °C) it was 3.71 nM; in series [6] (EZH2+/+, with H3K27me3 (AP), 25 °C, read-out: Equilibrium KD), 0.39 nM and 0.393 nM; in series [6] (EZH2+/+, without H3K27me3 (AP), 25 °C, read-out: Equilibrium KD) it was 1.13 nM; in series [6] (wild type EZH2, absence of H3K27me3 peptide, read-out: affinity in equilibrium conditions), 1.1 ± 0.2 nM; in series [6] (wild type EZH2, saturating concentrations of H3K27me3 peptide, read-out: affinity in equilibrium conditions), 0.4 ± 0.01 nM. Further, the Kd in series [7] (with AP) is 3.8 nM and 3.76 nM; in series [7] (without AP), 27 nM. The dissociation rate constant (koff) in series [5] (with AP, 25 °C) worked out at 0.00073 s⁻¹; in series [5] (without AP, 5 °C), 0.000177 s⁻¹; in series [5] (without AP, 15 °C), 0.000505 s⁻¹; in series [5] (without AP, 25 °C), 0.0027 s⁻¹; in series [5] (without AP, 30 °C), 0.0051 s⁻¹; in series [5] (without AP, 37 °C) it was 0.00823 s⁻¹. The values for the koff in series [7] (with AP) and in series [7] (without AP) were 0.0035 s⁻¹ and 0.018 s⁻¹, respectively. In addition, the kon was determined as 1.2e+06 M⁻¹ s⁻¹ in series [5] (with AP, 25 °C); 152000 M⁻¹ s⁻¹ in series [5] (without AP, 5 °C); 953000 M⁻¹ s⁻¹ in series [5] (without AP, 15 °C); 2e+06 M⁻¹ s⁻¹ in series [5] (without AP, 25 °C); 853000 M⁻¹ s⁻¹ in series [5] (without AP, 30 °C); 2.22e+06 M⁻¹ s⁻¹ in series [5] (without AP, 37 °C). In addition, the kon in series [7] (with AP) came to 1e+06 M⁻¹ s⁻¹; in series [7] (without AP), 680000 M⁻¹ s⁻¹. Besides, the Kinetic koff was found to be 0.000728 s⁻¹ in series [5] (with AP, 25 °C); 0.00273 s⁻¹ in series [5] (without AP, 25 °C); 0.00345 s⁻¹ in series [7] (with AP); 0.0177 s⁻¹ in series [7] (without AP). Moreover, the Kinetic kon in series [5] (with AP, 25 °C) is 1.16e+06 M⁻¹ s⁻¹; in series [5] (without AP, 25 °C), 1.96e+06 M⁻¹ s⁻¹; in series [7] (with AP), 1.01e+06 M⁻¹ s⁻¹; in series [7] (without AP), 679000 M⁻¹ s⁻¹.
As to `CCN(c1cc(-c2ccc(CN3CCOCC3)cc2)cc(C(=O)NCc2c(C)cc(C)[nH]c2=O)c1C)C1CCOCC1` [Compound 3, Tazemetostat], in series [2], the “AUC (a.u.)” value is recorded as 93.5 a.u.
As for `Cc1cc(C)c(CNC(=O)c2cc(Cl)c3c(c2C)O[C@@](C)([C@H]2CC[C@H](N(C)C)CC2)O3)c(=O)[nH]1` [Compound 31, DS-3201], the “AUC (a.u.)” value in series [2] is listed as 173.5 a.u. Further, the IC50 in series [2] (MDA-MB-231, read-out: Mean IC50 (M), H3K27 methylation HCA, incubation time 0.5 h, washout time 71.5 h) is 6.9e-07 M; in series [2] (MDA-MB-231, read-out: Mean IC50 (M), H3K27 methylation HCA, incubation time 1 h, washout time 71 h) it was 2.3e-07 M; in series [2] (MDA-MB-231, read-out: Mean IC50 (M), H3K27 methylation HCA, incubation time 24 h, washout time 48 h), 1.2e-07 M; in series [2] (MDA-MB-231, read-out: Mean IC50 (M), H3K27 methylation HCA, incubation time 48 h, washout time 24 h), 3.9e-08 M; in series [2] (MDA-MB-231, read-out: Mean IC50 (M), H3K27 methylation HCA, incubation time 72 h, washout time 0 h), 3.4e-09 M. Also, the Papp A→B at 2 h, 2 µM in series [3] was 0.599 ×10⁻⁶ cm/s. Besides, the Papp B→A at 2 h, 2 µM in series [3] was 20.9 ×10⁻⁶ cm/s.
In the case of `CCS(=O)(=O)N1CCC([C@@H](C)n2c(C)c(C(=O)NCc3c(OC)cc(C)[nH]c3=O)c3ccccc32)CC1` [Compound 10, CPI-169], the IC50 in series [8] is 860 nM; in series [2] (MDA-MB-231, H3K27 methylation HCA, incubation time 0.5 h, washout time 71.5 h, read-out: Mean IC50), over 1.2e-05 M; in series [2] (MDA-MB-231, H3K27 methylation HCA, incubation time 2 h, washout time 70 h, read-out: Mean IC50), over 1.2e-05 M; in series [2] (MDA-MB-231, H3K27 methylation HCA, incubation time 4 h, washout time 68 h, read-out: Mean IC50) it was over 1.2e-05 M; in series [2] (MDA-MB-231, H3K27 methylation HCA, incubation time 24 h, washout time 48 h, read-out: Mean IC50), over 1.2e-05 M; in series [2] (MDA-MB-231, H3K27 methylation HCA, incubation time 48 h, washout time 24 h, read-out: Mean IC50), 3.1e-06 M. In series [2], the “AUC (a.u.)” value was 39.5 a.u. Further, in series [3], the Papp A→B at 2 h, 2 µM was 0.041 ×10⁻⁶ cm/s. For the same molecule, the apparent permeability from basolateral to apical (Papp B→A) at 2 h, 2 µM in series [3] was found to be 14.7 ×10⁻⁶ cm/s.
